The text below walks through data of patent US20250257041A1, “INDUCERS OF INTEGRATED STRESS RESPONSE TO TREAT CANCER” (The Board of Regents of The University of Texas System, priority 2022, published 2025).

Data set [1] deals with Jurkat (Leukemia) cells. Kind of data set: Jurkat viability and cytotoxicity, GF-AFC and Cytox. The data set is classed as cell-based, human. The conditions noted are these: varying doses. On the procedure: FIG. 6A provides cytotoxicity studies for leukemia cells (Jurkat) with compound SW388710. […] Jurkat (Leukemia) cells were incubated with varying doses of SW388710.
Data set [2] has as its system HCT116 WT. Kind of data set: Proliferation of HCT116 colorectal cell line, Cell TiterGlo. The format is cell-based, human. A digest of the protocol:
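Cell viability by CellTiter-Glo in parental HCT116, in a GCN2-knockout line, and in parental cells co-treated with ISRIB. IC50 from triplicate 10-point titrations; repeated values come from separate runs.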
(In ATP-based viability assays light output follows the ATP content of the culture.)

The test system of data set [3] is HCT-116 (colorectal) cells. Kind of data set: HCT-116 viability and cytotoxicity, GF-AFC and Cytox. The format is cell-based, human. As to conditions: varying doses. On the procedure:
FIG. 6B provided cytostatic data for colorectal cells, with compound SW388710. […] HCT-116 (colorectal) cells were incubated with varying doses of SW388710.

Data set [4] relates to HCT116 GCN2KO. Kind of data set: Proliferation of HCT116 cells with GCN2 knocked out (CRISPR), Cell TiterGlo. The data set is classed as cell-based, human. As to conditions: for IC50: Homo sapiens. On the procedure: Briefly, compounds were tested for their effect on proliferation of HCT116 colorectal cell lines using Cell TiterGlo (Promega). Each compound was tested in a 10-point dose response experiment in triplicate. Multiple values in the column titled HCT116 WT reflect separate independent experiments. The three columns titled “HCT116 WT (repeat)”, “HCT116-CGN2KO” and “HCT116 WT+ISRIB” provide data for selected compounds that were tested simultaneously under three conditions. The HCT116 WT column lists IC50 against the wild type HCT116 colorectal cancer cell line. The HCT116-CGN2KO lists IC50 data for cells in which one component of the integrated stress response, GCN2, has been knocked out using CRISPR technology.

Data set [5] concerns phospho-GCN2. Kind of data set: Western blot for phospho-GCN2 in HCT116 wild-type and RPS23 mutant cells. The format is cell-based, human. As to conditions: wild-type HCT116 versus RPS23 del R107-G109 mutant. On the procedure: FIG. 12 is a western blot analysis showing the RPS23 is required for induction of GCN2 phosphorylation by SW710 (SW388710). Cells were incubated with SW710, lysed, then evaluated via western blot for phospho-GCN2, a marker of activation of the integrated stress response.
To confirm this hypothesis, wild-type HCT116 cells and HCT116 RPS23 del R107-G109 mutant cells were incubated with SW388710. Cells were lysed and evaluated via western blot for phospho-GCN2, a marker of activation of the integrated stress response.
In general terms: A western blot detects proteins with antibodies after separation by electrophoresis.

The subject of data set [6] is Jurkat cells. Kind of data set: Jurkat cell proliferation over three days, Cell Titer Glo. The data set is classed as cell-based, human. On the procedure:
FIG. 5A provides cell proliferation studies using Jurkat cells using exemplary novel compounds provided in the current disclosure. Jurkat cells, which are derived from a human leukemia, were incubated with varying concentrations of SW388710. Cell proliferation over three days was evaluated using luminescence from Cell Titer Glo (Promega) which reflects ATP levels.
FIG. 5B provides cell proliferation studies using Jurkat cells using exemplary novel compounds provided in the current disclosure. Jurkat cells, which are derived from a human leukemia, were incubated with varying concentrations of SW393071. Cell proliferation over three days was evaluated using luminescence from Cell Titer Glo (Promega) which reflects ATP levels.

Data set [7] in a line: Solubility remark printed in the HCT116 WT column. The format is physicochemical. As to conditions: cell wraps over r19 and r20: poor solubility.
In data set [8] the target is T1, RPS23 (Homo sapiens, UniProt P62266).
T1 construct: endogenous in cells; host or cells: HCT116
Kind of data set: Photo-crosslinking in HCT116 cells, biotin-azide click, streptavidin pull-down, western blot for RPS23. The data set is classed as binding. The conditions noted are these: HCT116 wild-type or RPS23 del R107-G109 mutant, UV irradiation. On the procedure:
Next HCT116 cells were incubated with SW393071 analogs conjugated to a photo-crosslinker (analogs: SW393065, SW393212 and SW393213), and irradiated with UV light. The cells were lysed and click-conjugated to biotin-azide. Drug-bound proteins were pulled down with streptavidin coated beads and resolved on an SDS-PAGE gel.
Wild-type or RPS23 del R107-G109 knock-in mutant HCT116 cells were incubated with photo-crosslinker analog SW393212 and irradiated with UV light. The cells were lysed, and click-conjugated to biotin-azide essentially as shown in Example 7. Drug-bound proteins were pulled down with streptavidin coated beads and resolved on an SDS-PAGE gel.

The mark [9] stands for this setting: Homo sapiens, HCT-116, wild type HCT116, 10-point dose response in triplicate, multiple values = separate independent experiments, read-out: HCT116 IC50 (uM) HCT116 WT.
[10] abbreviates: Homo sapiens, HCT-116, wild type HCT116, tested simultaneously with GCN2KO and +ISRIB, read-out: HCT116 IC50 (uM) HCT116 WT (repeat).
The mark [11] stands for this setting: wild type HCT116, compound plus 10 nM of ISRIB, read-out: HCT116 IC50 (uM) HCT116 WT + ISRIB.
[12] abbreviates: HCT-116, HCT116 cells with GCN2 knocked out using CRISPR, read-out: HCT116 IC50 (uM) HCT116 − GCN2KO.
The mark [13] stands for this setting: Homo sapiens, HCT-116, read-out: HCT116 IC50 (uM) HCT116 WT (repeat).
Where [14] appears, read: HCT-116, read-out: HCT116 IC50 (uM) HCT116 − GCN2KO.

Molecules are shown by their SMILES. Like-named read-outs stand apart in the source and are kept apart here.

The IC50 is the midpoint of a concentration-inhibition curve. Take `COc1cccc(C(=O)Nc2cc(-c3ccc(NC(=O)c4ccccc4)cc3)nn2C)c1` [SW388710, N-(3-(4-Benzamidophenyl)-1-methyl-1H-pyrazol-5-yl)-3-methoxybenzamide]: the “Cell death in leukemic cells” value in data set [1] is listed as “induces cell death in leukemic cells”. Moreover, the IC50 worked out at 0.23 µM in data set [2] (setting [9]); 0.21 µM in data set [2] (setting [10]); 1.89 µM in data set [2] (setting [11]); 1.95 µM in data set [4] (setting [12]); 78.2 nM in data set [6] (Homo sapiens, Jurkat, 72 h, three days, Cell Titer Glo luminescence). The “Proliferation of colorectal cancer cells” value in data set [3] was “reduces the proliferation of colorectal cancer cells”. The “Resistance on knockout of GCN2” value in data set [4] (HCT116, GCN2 but not other activating kinases) is reported as “confers resistance”. In data set [5], the “Activation of the ISR (phosphorylation of GCN2)” value was “Wild-type but not RPS23 mutant cells, showed activation of the ISR”. Further, the “Effect of ISRIB on anti-proliferative activity in Jurkat cells” value in data set [6] (addition of 10 nM of ISRIB) was “relative resistance”.
As to `Cn1nc(-c2ccc(NC(=O)c3ccccc3)cc2)cc1NC(=O)c1ccc(C(=O)c2ccccc2)cc1` [SW389003, N-(3-(4-Benzamidophenyl)-1-methyl-1H-pyrazol-5-yl)-4-benzoylbenzamide], in data set [7], the “Solubility (remark in place of an IC50)” value is given as “poor”. The IC50 in data set [2] (setting [13]) and in data set [4] (setting [14]) was no less than 50 µM in each case.
As for `Cc1ccccc1C(=O)Nc1ccc(-c2cc(NC(=O)c3ccccc3)n(C)n2)cc1` [SW393134, N-(4-(5-benzamido-1-methyl-1H-pyrazol-3-yl)phenyl)-2-methylbenzamide], the IC50 worked out at 0.012 µM in data set [2] (setting [9]), 0.02 µM in data set [2] (setting [10]), 0.19 µM in data set [2] (setting [11]) and 0.17 µM in data set [4] (setting [12]).
For `C#CCOc1ccc(C(=O)c2cccc(C(=O)Nc3cc(-c4ccc(NC(=O)c5ccccc5Cl)cc4)nn3C)c2)cc1` [SW393141, 2-Chloro-N-(4-(1-methyl-5-(3-(4-(prop-2-yn-1-yloxy)benzoyl)benzamido)-1H-pyrazol-3-yl)phenyl)benzamide], in that order: 0.12 µM, 0.3 µM, 0.41 µM and 0.49 µM.
On to `Cn1nc(-c2ccc(NC(=O)c3ccccc3Cl)cc2)cc1NC(=O)c1ccc(C2(C(F)(F)F)N=N2)cc1` [SW393142, 2-Chloro-N-(4-(1-methyl-5-(4-(3-(trifluoromethyl)-3H-diazirin-3-yl)benzamido)-1H-pyrazol-3-yl)phenyl)benzamide], for which the IC50 in data set [2] (Homo sapiens, HCT-116, read-out: HCT116 IC50 (uM) HCT116 WT) amounted to 3.6 µM; in data set [2] (setting [13]), 1.59 µM; in data set [2] (read-out: HCT116 IC50 (uM) HCT116 WT + ISRIB, wild type HCT116, compound plus 10 nM of ISRIB) it was 3.41 µM; in data set [4] (setting [14]) it was 3.22 µM.
As for `Cn1nc(-c2ccc(NC(=O)c3ccccc3[N+](=O)[O-])cc2)cc1NC(=O)c1ccccc1` [SW393143, N-(4-(5-benzamido-1-methyl-1H-pyrazol-3-yl)phenyl)-2-nitrobenzamide], the half-maximal inhibitory concentration (IC50) in data set [2] (setting [9]) stood at 0.01 µM; in data set [2] (setting [10]), 0.02 µM; in data set [2] (setting [11]), 0.14 µM; in data set [4] (setting [12]), 0.12 µM.
For `Cn1nc(-c2ccc(NC(=O)c3c(Cl)cccc3Cl)cc2)cc1NC(=O)c1ccccc1` [SW393144, N-(4-(5-benzamido-1-methyl-1H-pyrazol-3-yl)phenyl)-2,6-dichlorobenzamide], in that order: 0.13 µM, 0.43 µM, 2.55 µM and 2.31 µM.
Turning to `C#CCOc1ccccc1C(=O)Nc1ccc(-c2cc(NC(=O)c3ccccc3)n(C)n2)cc1` [SW393168, N-(4-(5-benzamido-1-methyl-1H-pyrazol-3-yl)phenyl)-2-(prop-2-yn-1-yloxy)benzamide], the IC50 in data set [2] (setting [9]) is 0.34 µM; in data set [2] (setting [10]), 1.02 µM; in data set [2] (setting [11]), 3.23 µM; in data set [4] (setting [12]), 2.95 µM.
For the compound `CSc1ccccc1C(=O)Nc1ccc(-c2cc(NC(=O)c3ccccc3)n(C)n2)cc1` [SW393169, N-(4-(5-benzamido-1-methyl-1H-pyrazol-3-yl)phenyl)-2-(methylthio)benzamide], the IC50 in data set [2] (setting [9]) came out at 0.01 µM; in data set [2] (setting [10]) it was 0.06 µM; in data set [2] (setting [11]) it was 0.49 µM; in data set [4] (setting [12]) it was 0.41 µM.
The like results for `Cn1nc(-c2ccc(NC(=O)c3ccccc3N=[N+]=[N-])cc2)cc1NC(=O)c1ccccc1` [SW393170, N-(4-(5-benzamido-1-methyl-1H-pyrazol-3-yl)phenyl)-2-azidobenzamide] were, in that order, 0.03 µM, 0.12 µM, 0.84 µM and 0.93 µM.
The like results for `Cn1nc(-c2ccc(NC(=O)c3cc(N=[N+]=[N-])ccc3Cl)cc2)cc1NC(=O)c1ccccc1` [SW393171, 5-azido-N-(4-(5-benzamido-1-methyl-1H-pyrazol-3-yl)phenyl)-2-chlorobenzamide] were, in that order, 0.19 µM, 0.49 µM, 2.33 µM and 2.78 µM.
As for `Cn1nc(-c2ccc(NC(=O)c3ccccc3Cl)cc2)cc1NC(=O)c1cccc(C2(C(F)(F)F)N=N2)c1` [SW393172, 2-Chloro-N-(4-(1-methyl-5-(3-(3-(trifluoromethyl)-3H-diazirin-3-yl)benzamido)-1H-pyrazol-3-yl)phenyl)benzamide], the IC50 in data set [2] (setting [9]) was found to be 3.6 µM; in data set [2] (setting [10]), 5.08 µM; in data set [2] (setting [11]), 5.25 µM; in data set [4] (setting [12]), 4.37 µM.
For `C#CCN(C(=O)c1ccccc1Cl)c1ccc(-c2cc(NC(=O)c3cccc(C4(C(F)(F)F)N=N4)c3)n(C)n2)cc1` [SW393173, 2-Chloro-N-(4-(1-methyl-5-(3-(3-(trifluoromethyl)-3H-diazirin-3-yl)benzamido)-1H-pyrazol-3-yl)phenyl)-N-(prop-2-yn-1-yl)benzamide], in that order: 2.4 µM, 4 µM, 3.11 µM and 2.9 µM.
The like results for `C#CCN(C(=O)c1ccccc1Cl)c1ccc(-c2cc(NC(=O)c3ccccc3)n(C)n2)cc1` [SW393174, N-(4-(5-Benzamido-1-methyl-1H-pyrazol-3-yl)phenyl)-2-chloro-N-(prop-2-yn-1-yl)benzamil-de] were, in that order, 6.1 µM, 7.18 µM, 6.52 µM and 6.37 µM.
Regarding `C#Cc1cccc(C(=O)Nc2cc(-c3ccc(NC(=O)c4cc(N=[N+]=[N-])ccc4Cl)cc3)nn2C)c1` [SW393212, 5-Azido-2-chloro-N-(4-(5-(3-ethynylbenzamido)-1-methyl-1H-pyrazol-3-yl)phenyl)benza-mide], the half-inhibitory concentration (IC50) in data set [2] (setting [9]) stood at 0.72 µM. For the same compound, the “RPS23 bands after photo-crosslinking pull-down” value in data set [8] is listed as “bands from WT but not RPS23 mutant cells”.
